The results in this text go back to patent US5204471A, “α-trifluoromethyl-substituted, saturated bicyclic amines” (Bayer Aktiengesellschaft, priority 1991, dated 1993).

In one assay the target is T1, HIV protease (Human immunodeficiency virus type 1 group M subtype B, UniProt P04585).
T1 construct: purified HIV protease
In words: HIV-specific protease enzyme test (cleavage of synthetic Gag peptide, RP HPLC). It counts as biochemical. To be noted: purified HIV protease, HIV-1, synthetic peptide substrate; read-out: IC50 value (concentration causing 50% inhibition of the protease activity). The method, then: HIV-specific protease enzyme test according to J. Hansen, S. Billich, T. Schulze, S. Sukrow and K. Molling, EMBO Journal, Vol. 7, No. 6, pages […] (1988).
This test was carried out by incubation of purified HIV protease with synthetic peptide which imitates a cleavage site in the Gag precursor protein and represents an in vivo cleavage point of the HIV protease. The resulting cleavage products of the synthetic peptide were analysed by reversed-phase high performance liquid chromatography (RP HPLC). The compound obtained according to Example 11 gave an IC50 value of 5×10^-8 with HIV-1. The IC50 value indicates the concentration of the substance causing 50% inhibition of the protease activity under the test conditions.

In another assay the test system is HIV. As to the kind of experiment: HIV test in a cell culture (syncytia formation in infected PBLs). Format: cell-based. To be noted: Human immunodeficiency virus 1, Lymphocyte, 72 h; HIV-infected normal human blood lymphocytes (PBLs), evaluated day 3 to 6 after infection; read-out: IC50 value (PBL), 50% suppression of virus-induced syncytia. The method, then:
HIV test in a cell culture with slight modifications according to Pauwels et al., Journal of Virological Methods 20, pages 309-321 (1988).
Normal human blood lymphocytes (PBLs) were concentrated via Ficoll-Hypaque and stimulated with phytohaemagglutinin (90 μg/ml) and interleukin-2 (40 U/ml) in RPMI 1640, 20% fetal calf serum. For infection with the infectious HIV, the PBLs were pelletised, and the cell pellet was then suspended in 1 ml of HIV virus adsorption solution and incubated at 37° C. for 1 hour.
The virus adsorption solution was centrifuged, and the infected cell pellet was taken up in growth medium in such a manner that 1×10^5 cells were present per ml. The cells infected in this manner were pipetted into the wells of 96-well microtitre plates in such a manner that each well contained 1×10^4 cells.
The first vertical row of the microtitre plate only contained growth medium and cells which were not infected but otherwise had been treated in the same manner as described above (cell control). The second vertical row of the microtitre plate only contained HIV-infected cells (virus control) in growth medium. […]
The test batches were incubated at 37° C. until the formation of syncytia typical for HIV occurred in the untreated virus control (between day 3 and 6 after infection), which formation was then evaluated under a microscope. […]

As to `CC(C)[C@H](NC(=O)[C@H](Cc1cccc2ccccc12)CS(=O)(=O)C(C)(C)C)C(=O)N[C@@H](Cc1ccccc1)C(O)CN1CCC2CCCCC2C1C(F)(F)F` (some centres unmarked) [Example 11], the IC50 was determined as 50 nM at HIV protease and 2500 nM in the assay on HIV.
